Here are results for 21 compounds from patent publication US20230295157A1, “3-(1H-IMIDAZOL-2-YL)-2,3,8,8A-TETRAHYDROINDOLIZIN-5(1H)-ONE DERIVATIVES USEFUL AS FACTOR XIA INHIBITORS” (JANSSEN PHARMACEUTICA NV, priority 2020, published 2023).

In one assay the target is human plasma kallikrein (Homo sapiens (Human), UniProt P03952). The assay can be described thus: Kallikrein inhibition assay (FLINT) utilizing a quenched AMC peptide substrate. In kind it is biochemical. As to conditions: 30 min preincubation, kinetic reads over 30 min, Z-Gly-Pro-Arg-AMC substrate 50 μM; read-out: Kallikrein Kin Inh IC50. A digest of the protocol:
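Fluorogenic Z-Gly-Pro-Arg-AMC cleavage (50 μM substrate, 2 nM kallikrein, Tris pH 7.5, CaCl2, BSA, CHAPS, 2% DMSO) read kinetically at 340/440 nm for 30 min after 30-min compound pre-incubation. Compounds in 11-point 3-fold series from 1 μM; percent inhibition fitted to four-parameter equation for IC50.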

The target in another assay is Factor XIa (Homo sapiens (Human), UniProt P03951). Nature of the assay: Factor XIa inhibition assay (FLINT) utilizing a fluorophore-quencher pair peptide substrate. In kind it is biochemical. As to conditions: 30 min preincubation, kinetic reads over 30 min, 5Fam-KLTRAETV-K5Tamra substrate 15 μM; read-out: FXIa Kin Inh IC50. A digest of the protocol:
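FXIa ([…]) preincubated 30 min with compound (11-point 3-fold dilution, top 100 nM, 2% DMSO), then 15 μM quenched FXI Arg146-based peptide added; Tris pH 7.5, CaCl2, BSA, CHAPS. Fluorescence 485/520 nm read kinetically every 5 min over 30 min at RT; IC50 by 4-parameter fit.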

For orientation: IC50 means the concentration that gives 50% inhibition.

human plasma kallikrein, sequence (P03952 391-638): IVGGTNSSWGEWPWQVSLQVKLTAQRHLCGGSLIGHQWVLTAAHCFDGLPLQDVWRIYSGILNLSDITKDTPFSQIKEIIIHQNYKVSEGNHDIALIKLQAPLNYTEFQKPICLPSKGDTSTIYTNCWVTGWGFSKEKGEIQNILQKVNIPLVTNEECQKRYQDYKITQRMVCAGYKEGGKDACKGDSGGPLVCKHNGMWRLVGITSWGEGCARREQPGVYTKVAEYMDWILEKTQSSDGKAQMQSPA
human plasma kallikrein, sequence (P03952 20-390 partner): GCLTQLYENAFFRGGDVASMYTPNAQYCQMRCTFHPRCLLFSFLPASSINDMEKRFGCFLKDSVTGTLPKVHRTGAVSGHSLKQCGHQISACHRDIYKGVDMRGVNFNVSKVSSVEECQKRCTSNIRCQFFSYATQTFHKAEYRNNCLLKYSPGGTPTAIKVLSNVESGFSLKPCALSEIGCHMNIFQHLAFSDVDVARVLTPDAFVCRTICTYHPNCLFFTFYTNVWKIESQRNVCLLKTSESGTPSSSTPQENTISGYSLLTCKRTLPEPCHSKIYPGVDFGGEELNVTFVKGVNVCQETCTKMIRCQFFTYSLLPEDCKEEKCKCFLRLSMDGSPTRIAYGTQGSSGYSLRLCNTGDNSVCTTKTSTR
Factor XIa, sequence (P03951 388-625): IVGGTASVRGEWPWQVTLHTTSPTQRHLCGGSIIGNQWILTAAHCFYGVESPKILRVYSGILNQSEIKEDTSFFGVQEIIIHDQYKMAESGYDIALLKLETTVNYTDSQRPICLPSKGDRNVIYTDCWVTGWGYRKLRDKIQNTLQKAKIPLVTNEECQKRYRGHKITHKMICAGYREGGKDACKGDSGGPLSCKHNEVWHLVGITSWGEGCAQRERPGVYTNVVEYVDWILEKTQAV
Factor XIa, sequence (P03951 19-387 partner): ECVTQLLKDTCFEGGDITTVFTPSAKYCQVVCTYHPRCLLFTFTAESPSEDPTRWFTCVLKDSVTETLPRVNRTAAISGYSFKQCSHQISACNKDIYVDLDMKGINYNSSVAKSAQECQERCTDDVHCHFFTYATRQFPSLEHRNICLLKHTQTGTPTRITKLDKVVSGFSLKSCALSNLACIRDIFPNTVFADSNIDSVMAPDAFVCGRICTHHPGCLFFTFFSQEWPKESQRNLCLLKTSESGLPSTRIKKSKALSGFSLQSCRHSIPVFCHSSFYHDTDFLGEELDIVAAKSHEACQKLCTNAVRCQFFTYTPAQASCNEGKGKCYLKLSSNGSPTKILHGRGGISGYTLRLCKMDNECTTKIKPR

With `O=C1C=C(c2c(-n3cnnn3)ccc(Cl)c2F)C[C@H]2CC[C@@H](c3ncc(-c4ccnc(COP(=O)(O)O)c4F)[nH]3)N12` [Example 61, (4-(2-((3S,8aR)-7-(3-chloro-2-fluoro-6-(1H-tetrazol-1-yl)phenyl)-5-oxo-1,2,3,5,8,8a-hexahydroindolizin-3-yl)-1H-imidazol-5-yl)-3-fluoropyridin-2-yl)methyl dihydrogen phosphate], the IC50 on human plasma kallikrein stood at 44.4 nM; on Factor XIa, 0.5 nM.
For `O=C1C=C(c2c(-n3cnnn3)ccc(Cl)c2F)C[C@H]2CC[C@@H](c3ncc(-c4cc[n+]([O-])c(CO)c4F)[nH]3)N12` [Example 65, 4-(2-((3S,8aR)-7-(3-chloro-2-fluoro-6-(1H-tetrazol-1-yl)phenyl)-5-oxo-1,2,3,5,8,8a-hexahydroindolizin-3-yl)-1H-imidazol-5-yl)-3-fluoro-2-(hydroxymethyl)pyridine 1-oxide] the same measures were 420 nM and 45.4 nM.
The corresponding values for `O=C1C=C(c2c(-n3cc(C(F)(F)F)nn3)ccc(Cl)c2F)C[C@H]2CC[C@@H](c3ncc(-c4ccnc(CO)c4F)[nH]3)N12` [Example 67, (3S,8aR)-7-(3-chloro-2-fluoro-6-(4-(trifluoromethyl)-1H-1,2,3-triazol-1-yl)phenyl)-3-(5-(3-fluoro-2-(hydroxymethyl)pyridin-4-yl)-1H-imidazol-2-yl)-2,3,8,8a-tetrahydroindolizin-5(1H)-one] are 85.7 nM and 10.7 nM.
The corresponding values for `Nc1ccnn1-c1nccc(-c2c[nH]c([C@@H]3CC[C@@H]4CC(c5c(-n6cnnn6)ccc(Cl)c5F)=CC(=O)N43)n2)c1F` [Example 68] are 58 nM and 30 nM.
In the case of `Nc1ccc(-c2[nH]c([C@@H]3CC[C@@H]4CC(c5cc(Cl)ccc5-n5cnnn5)=CC(=O)N43)nc2F)c(F)n1` [Example 69, (3S,8aR)-3-(5-(6-amino-2-fluoropyridin-3-yl)-4-fluoro-1H-imidazol-2-yl)-7-(5-chloro-2-(1H-tetrazol-1-yl)phenyl)-2,3,8,8a-tetrahydroindolizin-5(1H)-one], the values for the IC50 on human plasma kallikrein and at Factor XIa were 3.8 nM and 0.3 nM, respectively.
The corresponding values for `CC(C)[C@H](N)C(=O)OCc1nccc(-c2cnc([C@@H]3CC[C@@H]4CC(c5c(-n6cnnn6)ccc(Cl)c5F)=CC(=O)N43)[nH]2)c1F` [Example 75, [4-[2-[(3S,8aR)-7-[3-chloro-2-fluoro-6-(tetrazol-1-yl)phenyl]-5-oxo-2,3,8,8a-tetrahydro-1H-indolizin-3-yl]-1H-imidazol-5-yl]-3-fluoro-2-pyridyl]methyl (2S)-2-amino-3-methyl-butanoate] are 38.3 nM and 4.3 nM.
Take `CC(C)(CO)Nc1nccc(-c2cnc([C@@H]3CC[C@@H]4CC(c5cc(Cl)ccc5-n5cnnn5)=CC(=O)N43)[nH]2)c1F` [Example 79, (3S,8aR)-7-[5-chloro-2-(tetrazol-1-yl)phenyl]-3-[5-[3-fluoro-2-[(2-hydroxy-1,1-dimethyl-ethyl)amino]-4-pyridyl]-1H-imidazol-2-yl]-2,3,8,8a-tetrahydro-1H-indolizin-5-one]: the results for the IC50 on human plasma kallikrein and at Factor XIa were 12.2 nM and 7.5 nM, respectively.
The corresponding values for `O=C1C=C(c2cc(Cl)ccc2-n2cnnn2)C[C@H]2CC[C@@H](c3nc(F)c(-c4ccnc(CO)c4F)[nH]3)N12` [Example 80, (3S,8aR)-7-[5-chloro-2-(tetrazol-1-yl)phenyl]-3-[4-fluoro-5-[3-fluoro-2-(hydroxymethyl)-4-pyridyl]-1H-imidazol-2-yl]-2,3,8,8a-tetrahydro-1H-indolizin-5-one] are 11.2 nM and 1.3 nM.
For `O=C1CCc2cc(-c3[nH]c([C@@H]4CC[C@@H]5CC(c6cc(Cl)ccc6-n6cc(C(F)(F)F)nn6)=CC(=O)N54)nc3F)ccc2N1` [Example 81, 6-[2-[(3S,8aR)-7-[5-chloro-2-[4-(trifluoromethyl)triazol-1-yl]phenyl]-5-oxo-2,3,8,8a-tetrahydro-1H-indolizin-3-yl]-4-fluoro-1H-imidazol-5-yl]-3,4-dihydro-1H-quinolin-2-one] the same measures were 1.8 nM and 0.7 nM.
As for `O=C1C=C(c2cc(Cl)ccc2-n2cnnn2)C[C@H]2CC[C@@H](c3ncc(-c4ccc(NC56CC(C5)C6)nc4F)[nH]3)N12` [Example 83], the figures for the IC50 at human plasma kallikrein and at Factor XIa were 57.5 nM and 17.4 nM, respectively.
In the case of `CC(C)(O)CNc1nccc(-c2[nH]c([C@@H]3CC[C@@H]4CC(c5cc(Cl)ccc5-n5cnnn5)=CC(=O)N43)nc2F)c1F` [Example 84, (3S,8aR)-7-[5-chloro-2-(tetrazol-1-yl)phenyl]-3-[4-fluoro-5-[3-fluoro-2-[(2-hydroxy-2-methyl-propyl)amino]-4-pyridyl]-1H-imidazol-2-yl]-2,3,8,8a-tetrahydro-1H-indolizin-5-one], the IC50 on human plasma kallikrein was 3 nM; at Factor XIa, 0.3 nM.
On to `O=C1C=C(c2c(-n3cnnn3)ccc(Cl)c2F)C[C@H]2CC[C@@H](c3ncc(-c4ccnc(-n5ccnn5)c4)[nH]3)N12` [Example 85, (3S,8aR)-7-[3-chloro-2-fluoro-6-(tetrazol-1-yl)phenyl]-3-[5-[2-(triazol-1-yl)-4-pyridyl]-1H-imidazol-2-yl]-2,3,8,8a-tetrahydro-1H-indolizin-5-one], for which the IC50 on human plasma kallikrein was 8.9 nM; on Factor XIa, 11.1 nM.
For `O=C1C=C(c2c(-n3cnnn3)ccc(Cl)c2F)C[C@H]2CC[C@@H](c3ncc(-c4ccnc(-n5nccn5)c4)[nH]3)N12` [Example 86, (3S,8aR)-7-[3-chloro-2-fluoro-6-(tetrazol-1-yl)phenyl]-3-[5-[2-(triazol-2-yl)-4-pyridyl]-1H-imidazol-2-yl]-2,3,8,8a-tetrahydro-1H-indolizin-5-one] the same measures were 3.2 nM and 4.6 nM.
Take `O=C1C=C(c2c(-n3cnnn3)ccc(Cl)c2F)C[C@H]2CC[C@@H](c3nc(F)c(-c4ccnc(-n5nccn5)c4)[nH]3)N12` [Example 87, (3S,8aR)-7-[3-chloro-2-fluoro-6-(tetrazol-1-yl)phenyl]-3-[4-fluoro-5-[2-(triazol-2-yl)-4-pyridyl]-1H-imidazol-2-yl]-2,3,8,8a-tetrahydro-1H-indolizin-5-one]: the IC50 on human plasma kallikrein is 1.6 nM; at Factor XIa it was 0.9 nM.
The corresponding values for `O=C1C=C(c2c(-n3cnnn3)ccc(Cl)c2F)C[C@H]2CC[C@@H](c3nc(F)c(-c4ccnc(-n5cccn5)c4)[nH]3)N12` [Example 88, (3S,8aR)-7-[3-chloro-2-fluoro-6-(tetrazol-1-yl)phenyl]-3-[4 fluoro-5-(2-pyrazol-1-yl-4-pyridyl)-1H-imidazol-2-yl]-2,3,8,8a-tetrahydro-1H-indolizin-5-one] are 1.9 nM and 1.5 nM.
With `CC(C)(CO)Nc1nccc(-c2cnc([C@@H]3CC[C@@H]4CC(c5c(-n6cnnn6)ccc(Cl)c5F)=CC(=O)N43)[nH]2)c1F` [Example 89, (3S,8aR)-7-[3-chloro-2-fluoro-6-(tetrazol-1-yl)phenyl]-3-[5-[3-fluoro-2-[(2-hydroxy-1,1-dimethyl-ethyl)amino]-4-pyridyl]-1H-imidazol-2-yl]-2,3,8,8a-tetrahydro-1H-indolizin-5-one], the values for the IC50 on human plasma kallikrein and on Factor XIa were 7.4 nM and 5.8 nM, respectively.
The corresponding values for `O=C1C=C(c2c(-n3cnnn3)ccc(Cl)c2F)C[C@H]2CC[C@@H](c3ncc(-c4ccnc(-n5cccn5)c4)[nH]3)N12` [Example 93, (3S,8aR)-3-(5-(2-(1H-pyrazol-1-yl)pyridin-4-yl)-1H-imidazol-2-yl)-7-(3-chloro-2-fluoro-6-(1H-tetrazol-1-yl)phenyl)-2,3,8,8a-tetrahydroindolizin-5(1H)-one] are 3.1 nM and 10.3 nM.
The corresponding values for `O=C(c1nccc(-c2cnc([C@@H]3CC[C@@H]4CC(c5c(-n6cnnn6)ccc(Cl)c5F)=CC(=O)N43)[nH]2)c1F)N1CC(F)(F)C1` [Example 94, (3S,8aR)-7-(3-Chloro-2-fluoro-6-(1H-tetrazol-1-yl)phenyl)-3-(5-(2-(3,3-difluoroazetidine-1-carbonyl)-3-fluoropyridin-4-yl)-1H-imidazol-2-yl)-2,3,8,8a-tetrahydroindolizin-5(1H)-one] are 122 nM and 12.3 nM.
For `CC1(O)CCc2c(-c3cnc(C4CCC5CC(c6c(-n7cnnn7)ccc(Cl)c6F)=CC(=O)N54)[nH]3)ccnc21` (stereo not drawn) [Example 95, 7-(3-Chloro-2-fluoro-6-(1H-tetrazol-1-yl)phenyl)-3-(5-(7-hydroxy-7-methyl-6,7-dihydro-5H-cyclopenta[b]pyridin-4-yl)-1H-imidazol-2-yl)-2,3,8,8a-tetrahydroindolizin-5(1H)-one] the same measures were 23.9 nM and 3.5 nM.
`O=C1C=C(c2cc(Cl)ccc2-n2cnnn2)C[C@H]2CC[C@@H](c3ncc(-c4ccnc(NC56CC(C5)C6)c4F)[nH]3)N12` [Example 96, (3S,8aR)-3-(5-(2-(Bicyclo[1.1.1]pentan-1-ylamino)-3-fluoropyridin-4-yl)-1H-imidazol-2-yl)-7-(5-chloro-2-(1H-tetrazol-1-yl)phenyl)-2,3,8,8a-tetrahydroindolizin-5(1H)-one]: the results for the IC50 on human plasma kallikrein and at Factor XIa were 2.6 nM and 5.4 nM, respectively.
For `O=C1CCc2cc(-c3cnc([C@@H]4CC[C@@H]5CC(c6cc(Cl)ccc6-n6cc(C(F)(F)F)nn6)=CC(=O)N54)[nH]3)ccc2N1` [Example 97, 6-(2-((3S,8aR)-7-(5-chloro-2-(4-(trifluoromethyl)-1H-1,2,3-triazol-1-yl)phenyl)-5-oxo-1,2,3,5,8,8a-hexahydroindolizin-3-yl)-1H-imidazol-5-yl)-3,4-dihydroquinolin-2(1H)-one] the same measures were 4.6 nM and 1.6 nM.
